Results: patent US11370770B2, “3-arylindazoles as selective MEK4 inhibitors” (priority 2019, dated 2022)

Assays:
MEK6 = MEK6 (Homo sapiens (Human), UniProt P52564); assay: MEK family profiling ADP-Glo, MEK6; assay type: biochemical; conditions: p38α substrate; 0.6 μM ATP; read-out: IC50 MEK isoform 6
MEK2 = MEK2 (Homo sapiens (Human), UniProt P36507); assay: MEK family profiling ADP-Glo, MEK2; assay type: biochemical; conditions: Erk2 substrate; 0.6 μM ATP; read-out: IC50 MEK isoform 2
MEK5 = MEK5 (Homo sapiens (Human), UniProt Q13163); assay: MEK family profiling ADP-Glo, MEK5; assay type: biochemical; conditions: Erk5 substrate; 0.6 μM ATP; read-out: IC50 MEK isoform 5
MEK1 = MEK1 (Homo sapiens (Human), UniProt Q02750); assay: MEK family profiling ADP-Glo, MEK1; assay type: biochemical; conditions: Erk2 substrate; 0.6 μM ATP; read-out: IC50 MEK isoform 1
human MEK4 = human MEK4 (Homo sapiens (Human), UniProt P45985); assay: MEK4 ADP-Glo kinase activity assay (p38α substrate); assay type: biochemical; conditions: for IC50: p38α substrate, value with 95% confidence interval in brackets, read-out: MEK4-p38, IC50, μM [95% Cl]
MEK3 = MEK3 (Homo sapiens (Human), UniProt P46734); assay: MEK family profiling ADP-Glo, MEK3; assay type: biochemical; conditions: p38α substrate; 0.6 μM ATP; read-out: IC50 MEK isoform 3
PC3M cells = assay: Scratch wound assay; assay type: cell-based

Chain of MEK3 (P46734 whole entry, canonical isoform): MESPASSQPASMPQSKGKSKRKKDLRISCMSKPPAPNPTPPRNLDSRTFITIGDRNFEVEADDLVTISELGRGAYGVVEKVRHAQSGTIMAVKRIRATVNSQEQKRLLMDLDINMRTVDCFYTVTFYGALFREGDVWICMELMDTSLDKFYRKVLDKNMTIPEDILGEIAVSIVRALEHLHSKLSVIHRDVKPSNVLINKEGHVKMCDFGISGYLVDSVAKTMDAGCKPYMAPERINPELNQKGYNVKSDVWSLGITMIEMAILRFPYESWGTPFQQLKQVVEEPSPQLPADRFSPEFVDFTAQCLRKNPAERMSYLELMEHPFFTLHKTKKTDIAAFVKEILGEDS
Chain of MEK1 (Q02750 whole entry, canonical isoform): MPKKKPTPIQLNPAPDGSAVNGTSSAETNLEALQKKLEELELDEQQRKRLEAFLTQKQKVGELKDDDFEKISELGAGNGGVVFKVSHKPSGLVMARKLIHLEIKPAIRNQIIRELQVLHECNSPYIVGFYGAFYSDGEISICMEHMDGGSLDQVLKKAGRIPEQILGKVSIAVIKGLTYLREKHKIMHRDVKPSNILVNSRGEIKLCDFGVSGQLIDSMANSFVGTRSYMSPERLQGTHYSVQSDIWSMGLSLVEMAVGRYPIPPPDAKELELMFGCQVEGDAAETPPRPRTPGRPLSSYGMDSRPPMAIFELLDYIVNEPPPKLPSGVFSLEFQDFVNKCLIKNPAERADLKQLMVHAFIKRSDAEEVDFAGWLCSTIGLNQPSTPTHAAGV
Chain of MEK6 (P52564 whole entry, canonical isoform): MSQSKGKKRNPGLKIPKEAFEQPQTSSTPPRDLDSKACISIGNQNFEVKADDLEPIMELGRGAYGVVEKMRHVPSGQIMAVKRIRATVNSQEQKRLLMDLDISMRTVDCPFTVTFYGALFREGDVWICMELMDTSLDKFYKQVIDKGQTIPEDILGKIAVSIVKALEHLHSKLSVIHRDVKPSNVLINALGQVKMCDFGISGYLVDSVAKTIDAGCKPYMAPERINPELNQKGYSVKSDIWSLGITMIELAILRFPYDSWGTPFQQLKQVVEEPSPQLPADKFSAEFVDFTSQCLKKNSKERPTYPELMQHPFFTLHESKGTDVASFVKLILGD
Chain of MEK5 (Q13163 whole entry, canonical isoform): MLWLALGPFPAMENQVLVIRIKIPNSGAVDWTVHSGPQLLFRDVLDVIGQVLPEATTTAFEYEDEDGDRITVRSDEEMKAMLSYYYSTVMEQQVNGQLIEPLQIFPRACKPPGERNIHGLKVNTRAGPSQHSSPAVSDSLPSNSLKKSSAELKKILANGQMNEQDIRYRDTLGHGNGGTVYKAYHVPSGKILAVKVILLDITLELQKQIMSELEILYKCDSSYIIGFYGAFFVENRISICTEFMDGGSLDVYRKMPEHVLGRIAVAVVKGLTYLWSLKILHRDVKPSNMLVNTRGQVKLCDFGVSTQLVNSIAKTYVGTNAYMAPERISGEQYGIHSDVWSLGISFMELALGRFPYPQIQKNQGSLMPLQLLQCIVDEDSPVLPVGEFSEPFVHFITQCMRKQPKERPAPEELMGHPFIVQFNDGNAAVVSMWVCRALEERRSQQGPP
Chain of MEK2 (P36507 whole entry, canonical isoform): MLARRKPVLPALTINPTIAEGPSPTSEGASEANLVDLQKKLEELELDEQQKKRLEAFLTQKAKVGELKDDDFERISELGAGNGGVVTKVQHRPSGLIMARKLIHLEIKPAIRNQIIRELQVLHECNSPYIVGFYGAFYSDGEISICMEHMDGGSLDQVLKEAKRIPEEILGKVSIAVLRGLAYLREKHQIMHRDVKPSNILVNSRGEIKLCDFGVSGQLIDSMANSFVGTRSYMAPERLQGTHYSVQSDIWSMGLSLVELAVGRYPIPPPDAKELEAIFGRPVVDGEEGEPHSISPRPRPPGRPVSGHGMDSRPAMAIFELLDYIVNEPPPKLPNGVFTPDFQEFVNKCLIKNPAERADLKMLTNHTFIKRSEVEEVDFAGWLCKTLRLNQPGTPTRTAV
Chain of human MEK4 (P45985 whole entry, canonical isoform): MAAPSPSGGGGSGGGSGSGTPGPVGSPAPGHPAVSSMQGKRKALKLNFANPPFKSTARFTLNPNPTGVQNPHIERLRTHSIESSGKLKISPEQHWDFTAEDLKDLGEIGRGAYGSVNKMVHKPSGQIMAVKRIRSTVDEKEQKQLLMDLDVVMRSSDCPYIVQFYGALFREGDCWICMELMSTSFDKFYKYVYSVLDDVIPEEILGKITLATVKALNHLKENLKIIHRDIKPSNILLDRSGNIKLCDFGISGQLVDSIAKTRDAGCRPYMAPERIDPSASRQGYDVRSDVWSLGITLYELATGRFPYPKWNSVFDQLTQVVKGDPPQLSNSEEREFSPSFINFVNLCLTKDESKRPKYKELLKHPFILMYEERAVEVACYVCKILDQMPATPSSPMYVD

Row | SMILES | IC50 (MEK6) [µM] | IC50 (MEK2) [µM] | IC50 (MEK5) [µM] | IC50 (MEK1) [µM] | IC50 (MEK3) [µM] | further results
1 | Oc1ccc(-c2n[nH]c3ccc(C(F)(F)F)cc23)cc1 [Compound 6j, 4-[5-(trifluoromethyl)-2H-indazol-3-yl]phenol] | 1.6 | 5.3 | > 27 | 4.6 |  | 
2 | Cc1ccc2[nH]nc(-c3ccc(O)cc3)c2c1 [Compound 6q, 4-(5-methyl-2H-indazol-3-yl)phenol] | 2.2 | 7.2 | 25 | 7.7 |  | 
3 | COC(=O)c1ccc(-c2n[nH]c3cc(C(F)(F)F)ccc23)cc1 [Compound 6y, methyl 4-[6-(trifluoromethyl)-2H-indazol-3-yl]benzoate] |  |  |  |  |  | MEK4 inhibition (human MEK4; SAR discussion of Table 1): completely inactive; IC50 (human MEK4): > 20 µM
4 | Cc1cccc2[nH]nc(-c3ccc(O)cc3)c12 [Compound 6b] | 21 | 15 | > 27 | 11 | > 27 | 
5 | Clc1cccc2[nH]nc(-c3cccnc3)c12 [Compound 6e, 4-chloro-3-(pyridin-3-yl)-2H-indazole] |  |  |  |  |  | IC50 (human MEK4): > 22 µM
6 | Cc1ccc2[nH]nc(-c3ccc(C(=O)O)cc3)c2c1 [Compound 6s, 4-(5-methyl-2H-indazol-3-yl)benzoic Acid] | 8.7 | > 27 | > 27 | 17 | 12 | 
7 | CC(C)(C)OC(=O)n1nc(-c2ccc(O)cc2)c2cc(C(F)(F)F)ccc21 [Compound 6k, tert-butyl 3-(4-hydroxyphenyl)-5-(trifluoromethyl)-1H-indazole-1-carboxylate] |  |  |  |  |  | IC50 (human MEK4): > 20 µM
8 | Cc1ccc2[nH]nc(-c3ccc4c(c3)OCO4)c2c1 [Compound 6p, 3-(2H-1,3-benzodioxol-5-yl)-5-methyl-2H-indazole] | 3.2 | 9.1 | 16 | 6.6 | 8.5 | 
9 | Fc1ccc2c(-c3ccc4c(c3)OCO4)n[nH]c2c1 [Compound 6ee, 3-(2H-1,3-benzodioxol-5-yl)-6-fluoro-2H-indazole] | 5.8 | 9.3 | > 27 | 6.6 | 21 | efficacy in wound scratch assay (PC3M cells; 10 μM): modest efficacy; efficacy in wound scratch assay (PC3M cells; 25 μM): performs better; Percent Difference, DMSO vs. 10 uM inhibitor (PC3M cells; PC3M cells, 10 μM, wound gap 0 vs 20 hrs): 14.93%; Percent Difference, DMSO vs. 25 uM inhibitor (PC3M cells; PC3M cells, 25 μM, wound gap 0 vs 20 hrs): 32.15%
10 | O=C(O)c1ccc(-c2n[nH]c3cc(C(F)(F)F)ccc23)cc1 [Compound 6z, 4-[6-(trifluoromethyl)-2H-indazol-3-yl]benzoic Acid] | 8.8 | > 27 | 0.35 | 17 | > 27 | 
11 | CC(C)(O)c1cccc(-c2n[nH]c3cccc(Cl)c23)c1 [Compound 6g, 2-[3-(4-chloro-2H-indazol-3-yl)phenyl]propan-2-ol] |  |  |  |  |  | IC50 (human MEK4): > 22 µM
12 | Cc1ccc2[nH]nc(-c3ccc(C(N)=O)cc3)c2c1 [Compound 6r, 4-(5-methyl-2H-indazol-3-yl)benzamide] | 2.1 | 6.1 | 19 | 3.9 | 4.1 | 
13 | O=C(O)c1ccc(-c2n[nH]c3ccc(C(F)(F)F)cc23)cc1 [Compound 6n, 4-[5-(trifluoromethyl)-2H-indazol-3-yl]benzoic Acid] | 6 | > 27 | > 27 | 10 | 2.9 | 
14 | Cc1ccc2[nH]nc(-c3ccc(F)c(CO)c3)c2c1 [Compound 6o] | 3.4 | 5.4 | > 27 | 4 | 6 | 
15 | O=c1c(-c2ccc(O)cc2)coc2cc(O)cc(O)c12 [Geni, genistein, reference compound] |  |  |  |  |  | Percent Difference, DMSO vs. Geni (PC3M cells; PC3M cells, genistein 10 μM, wound gap 0 vs 20 hrs): 33.45%
